Source: ChEMBL document CHEMBL1158779, “Sulfur-containing polybromoindoles from the Formosan red alga Laurencia brongniartii” (J Nat Prod, 2005)
Calls of active or inactive are those of the source. The calls are words filed in the database; no cut-off is given here.

Legend:
HT-29 = assay: Cytotoxicity against human HT-29 cells; type: functional, cell-based
P388 = assay: Cytotoxicity against mouse P388 cells; type: functional, cell-based

SMILES	Activity (HT-29)	Activity (P388)
CSc1c(Br)[nH]c2cc(Br)cc(Br)c12	inactive	inactive
CSc1c([S+](C)[O-])[nH]c2cc(Br)cc(Br)c12 (centres undefined)	inactive	inactive
CSc1c([S+](C)[O-])[nH]c2cc(Br)c(Br)c(Br)c12 (centres undefined)	inactive	inactive
C[S+]([O-])c1[nH]c2cc(Br)cc(Br)c2c1[S+](C)[O-] (centres undefined)	inactive	inactive
CSc1[nH]c2cc(Br)cc(Br)c2c1SC	inactive	inactive
CSc1cc2c(Br)cc(Br)cc2[nH]1	inactive	inactive
CSc1c(Br)[nH]c2cc(Br)c(Br)c(Br)c12	inactive	inactive
C[S+]([O-])c1[nH]c2cc(Br)cc(Br)c2c1-c1c([S+](C)[O-])[nH]c2cc(Br)cc(Br)c12 (centres undefined)	inactive	Active
CSc1[nH]c2cc(Br)c(Br)c(Br)c2c1SC	inactive	inactive
CSc1[nH]c2cc(Br)cc(Br)c2c1-c1c([S+](C)[O-])[nH]c2cc(Br)cc(Br)c12 (centres undefined)	Active	Active
C[S+]([O-])c1c(Br)[nH]c2cc(Br)cc(Br)c12 (centres undefined)	inactive	inactive
CSc1[nH]c2cc(Br)cc(Br)c2c1-c1c(SC)[nH]c2cc(Br)cc(Br)c12	inactive	inactive
